# Data from patent US9751861B2, “N1-(3,3,3-trifluoro-2-hydroxo-2-methylpropionyl)-piperidine derivatives as inhibitors of pyruvate dehydrogenase kinase” (MERCK PATENT GMBH, priority 2013, dated 2017).
# Columns and labels:
# human PDHK2 (12-407) = molecular target: T1, human PDHK2 (12-407) (Homo sapiens, UniProt Q15119); assay: Isothermal titration calorimetry (ITC) binding; details: 30° C., pH 7.5
# T1 construct: The human PDHK2 (12-407) was produced in E. coli; His-tag (cleaved yes); made in house; host or cells: E. coli
# Experimental: Isothermal Titration Calorimetry
# ITC measurements were performed with a VP-ITC micro calorimeter (Microcal, LLC/GE Healthcare Bio-Sciences AB, Uppsala, Sweden). In general titrations were performed by titrating the protein (50 μM) to the test compound (5 μM) in 12 μl injections. All binding experiments were carried out at 30° C. In general the test compounds were diluted form DMSO stock solutions into the measurement buffer with a maximum final concentration of 1% DMSO. The measurement buffer was 20 mM HEPES, 135 mM KCl, 1 mM TCEP, 2 mM MgCl2, 15 mM NaH2PO4, pH 7.5. The human PDHK2 (12-407) was produced in E. coli as his-tagged protein and purified by affinity chromatography. The tag was removed by side specific proteolysis. Before titration the protein buffer was changed to the measurement buffer containing the same DMSO concentration as the test compound dilution. ITC data analysis was performed using Origin 7 calorimetry software from the same supplier. For most measurements a binding model of one binding site was assumed. According to the applied mathematical model it is possible to calculate the binding constant (KA), the observed binding enthalpy (ΔH^obs) as well as the stoichiometry (N) of the formed complex. Preceding analysis the raw data was corrected for the heats of dilution by extrapolating from the saturation value from the end of titration. In order to allow for direct comparison between the respective experimental series and protein preparations the protein concentration was corrected by referencing titrations to a well behaved standard inhibitor. The apparent stoichiometry values defined the fraction of binding competent protein and compensated for relative errors in protein concentration measurements. This corrected protein concentration was used to set up ITC experiment series with test compounds. Any deviations from ideal 1:1 stoichiometry observed here were attributed to errors in compound concentration. This nominal compound concentration was corrected as well to achieve 1:1 stoichiometry in the fit.
# PDHK2 = molecular target: T2, PDHK2 (Homo sapiens, UniProt Q15119); assay: Biochemical activity testing of PDHK2: PDC inactivation assay; details: human rec PDHK2, PDC from porcine heart, ATP 5 μM; read-out: IC50 PDHK2 (enzyme assay)
# T2 construct: purchased Carna Bioscience
# Text: Biochemical Activity Testing of PDHK2: PDC Inactivation Assay
# The biochemical activity assay for PDHK2 is based on the inactivation of PDC through phosphorylation by PDHK2. The assay is run in two steps: the enzymatic PDHK2 reaction in which isolated PDC is phosphorylated by PDHK2 with ATP as co-substrate and the PDC activity assay in which pyruvate and NAD are converted to acetyl-CoA and NADH. The PDC activity correlates to the increase in NADH and thereby is detectable directly via the increasing fluorescence signal (Exc 340 nm, Em 450 nm). Inhibition of PDHK2 results in a lower phosphorylation status and thereby a less decrease in activity of PDC and a stronger increase in NADH fluorescence signal.
# The PDC inactivation assay is performed in Greiner 384-well microtiter plates and is used for high throughput screen. 4 μl of PDHK2 (human, rec, Carna Bioscience, 10 ng/μl-137 nM final concentration) and PDC (isolated from porcine heart, Sigma-Aldrich, 20 mU/ml final concentration) are incubated in the absence or presence of the test compound (10 dilution concentrations) for 30 min at room temperature in kinase buffer (15 mM potassium phosphate buffer, pH 7.0, 60 mM KCl, 1.5 mM DTT, 2.5 mM MgCl2, 0.0125% (w/v) BSA, 0.125% Pluronic F-68). The kinase reaction is started by the addition of 4 μl ATP substrate solution (fc 5 μM in kinase buffer). After 30 min incubation at 37° C. 40 μl of PDC reaction solution (100 mM Tris/HCl, pH 7.8, 0.5 mM EDTA, 1 mM MgCl2, 50 mM NaF, 0.25 mM Coenzyme A, 5 mM pyruvate, 1 mM NAD, 5 mM DTT, […] thiamine pyrophosphate) is added. The first fluorescence measurement is performed on a Perkin Elmer Envision (Exc 340 nm, Em 450 nm). The reaction is incubated for 45 min at room temperature. Afterwards a second fluorescence measurement is performed and the PDC activity is calculated by the difference between both measurements. As full value for the PDHK2 assay the inhibitor-free PDHK2 reaction is used. The pharmacological zero value used is DCA (Sigma-Aldrich) in a final concentration of 3 mM. The inhibitory values (IC50) were determined using either the program Symyx Assay Explorer® or Condosseo® from GeneData.
SMILES,Kd (human PDHK2 (12-407)),IC50 (PDHK2)
"C[C@@](O)(C(=O)N1CCC(c2cnnn2-c2ccc(Cl)cc2)CC1)C(F)(F)F [Compound A58, (R)-1-{4-[3-(4-Chloro-phenyl)-3H-[1,2,3]triazol-4-yl]-piperidin-1-yl}-3,3,3-trifluoro-2-hydroxy-2-methyl-propan-1-one]",0.3 to 3 µM,0.3 to 3 µM
"Cc1cc(C2CCN(C(=O)[C@@](C)(O)C(F)(F)F)CC2)nn1-c1ccc(Cl)cc1 [Compound A34, (R)-1-{4-[1-(4-Chloro-phenyl)-5-methyl-1H-pyrazol-3-yl]-piperidin-1-yl}-3,3,3-trifluoro-2-hydroxy-2-methyl-propan-1-one]",0.3 to 3 µM,0.3 to 3 µM
"C[C@H]1CN(C(=O)[C@@](C)(O)C(F)(F)F)CC[C@H]1c1ccnn1-c1ccc(F)cc1 [Compound A108, (R)-3,3,3-Trifluoro-1-{(3R,4R)-4-[2-(4-fluoro-phenyl)-2H-pyrazol-3-yl]-3-methyl-piperidin-1-yl}-2-hydroxy-2-methyl-propan-1-one]",0.3 to 3 µM,0.3 to 3 µM
"C[C@@](O)(C(=O)N1CCC(c2ccnn2C2CC2)CC1)C(F)(F)F [Compound A74, (R)-1-[4-(2-Cyclopropyl-2H-pyrazol-3-yl)-1-piperidyl]-3,3,3-trifluoro-2-hydroxy-2-methyl-propan-1-one]",< 0.3 µM,0.3 to 3 µM
"COc1ccc(-n2ccnc2C2CCN(C(=O)[C@@](C)(O)C(F)(F)F)CC2)cc1 [Compound A70, (R)-3,3,3-Trifluoro-2-hydroxy-1-{4-[1-(4-methoxy-phenyl)-1H-imidazol-2-yl]-piperidin-1-yl}-2-methyl-propan-1-one]",0.3 to 3 µM,0.3 to 3 µM
"C[C@@](O)(C(=O)N1CCC(n2nccc2-c2ccccc2)CC1)C(F)(F)F [Compound A66, (R)-3,3,3-Trifluoro-2-hydroxy-2-methyl-1-[4-(5-phenyl-pyrazol-1-yl)-piperidin-1-yl]-propan-1-one]",0.3 to 3 µM,0.3 to 3 µM
"C[C@@](O)(C(=O)N1CCC(c2nccn2-c2ccc(F)cc2)CC1)C(F)(F)F [Compound A67, (R)-3,3,3-Trifluoro-1-{4-[1-(4-fluoro-phenyl)-1H-imidazol-2-yl]-piperidin-1-yl}-2-hydroxy-2-methyl-propan-1-one]",0.3 to 3 µM,0.3 to 3 µM
"Cc1ccc(-n2ccnc2C2CCN(C(=O)[C@@](C)(O)C(F)(F)F)CC2)cc1 [Compound A68, (R)-3,3,3-Trifluoro-2-hydroxy-2-methyl-1-[4-(1-p-tolyl-1H-imidazol-2-yl)piperidin-1-yl]-propan-1-one]",0.3 to 3 µM,0.3 to 3 µM
"C[C@@](O)(C(=O)N1CCC(c2ccnn2-c2ccon2)CC1)C(F)(F)F [Compound A122, (R)-3,3,3-Trifluoro-2-hydroxy-1-[4-(2-isoxazol-3-yl-2H-pyrazol-3-yl)-piperidin-1-yl]-2-methyl-propan-1-one]",0.3 to 3 µM,0.3 to 3 µM
"COc1ccc(-n2ccc(C3CCN(C(=O)[C@@](C)(O)C(F)(F)F)CC3)n2)nn1 [Compound A105, (R)-3,3,3-Trifluoro-2-hydroxy-1-{4-[1-(6-methoxy-pyridazin-3-yl)-1H-pyrazol-3-yl]-piperidin-1-yl}-2-methyl-propan-1-one]",0.3 to 3 µM,0.3 to 3 µM
"C[C@@](O)(C(=O)N1CCC(c2nncn2-c2ccc(F)cc2)CC1)C(F)(F)F [Compound A71, (R)-3,3,3-Trifluoro-1-{4-[4-(4-fluoro-phenyl)-4H-[1,2,4]triazol-3-yl]-piperidin-1-yl}-2-hydroxy-2-methyl-propan-1-one]",0.3 to 3 µM,0.3 to 3 µM
"C[C@@](O)(C(=O)N1CCC(c2nncn2-c2ccccc2)CC1)C(F)(F)F [Compound A72, (R)-3,3,3-Trifluoro-2-hydroxy-2-methyl-1-[4-(4-phenyl-4H-[1,2,4]triazol-3-yl)piperidin-1-yl]-propan-1-one]",0.3 to 3 µM,0.3 to 3 µM
"C[C@@](O)(C(=O)N1CCC(n2cnnc2-c2ccc(Cl)cc2)CC1)C(F)(F)F [Compound A56, (R)-1-{4-[3-(4-Chloro-phenyl)-[1,2,4]triazol-4-yl]-piperidin-1-yl}-3,3,3-trifluoro-2-hydroxy-2-methyl-propan-1-one]",0.3 to 3 µM,0.3 to 3 µM
"Cn1nccc1C1CCN(C(=O)[C@@](C)(O)C(F)(F)F)CC1 [Compound A52, (R)-3,3,3-Trifluoro-2-hydroxy-2-methyl-1-[4-(2-methyl-2H-pyrazol-3-yl)piperidin-1-yl]-propan-1-one]",0.3 to 3 µM,0.3 to 3 µM
"C[C@@](O)(C(=O)N1CCC(c2ccn(-c3ccc(Cl)cn3)n2)CC1)C(F)(F)F [Compound A29, (R)-1-{4-[1-(5-Chloro-pyridin-2-yl)-1H-pyrazol-3-yl]-piperidin-1-yl}-3,3,3-trifluoro-2-hydroxy-2-methyl-propan-1-one]",0.3 to 3 µM,0.3 to 3 µM
"Cc1cc(C2CCN(C(=O)[C@@](C)(O)C(F)(F)F)CC2)n(-c2ccc(Cl)cc2)n1 [Compound A50, (R)-1-{4-[2-(4-Chloro-phenyl)-5-methyl-2H-pyrazol-3-yl]-piperidin-1-yl}-3,3,3-trifluoro-2-hydroxy-2-methyl-propan-1-one]",< 0.3 µM,< 0.3 µM
"COc1cc(F)ccc1-n1nccc1C1CCN(C(=O)[C@@](C)(O)C(F)(F)F)CC1 [Compound A90, (R)-3,3,3-Trifluoro-1-{4-[2-(4-fluoro-2-methoxy-phenyl)-2H-pyrazol-3-yl]-piperidin-1-yl}-2-hydroxy-2-methyl-propan-1-one]",,0.3 to 3 µM
"C[C@H]1CN(C(=O)[C@@](C)(O)C(F)(F)F)CC[C@H]1c1ccn(-c2ccc(F)cc2)n1 [Compound A45, (R)-3,3,3-Trifluoro-1-{(3R,4R)-4-[1-(4-fluoro-phenyl)-1H-pyrazol-3-yl]-3-methyl-piperidin-1-yl}-2-hydroxy-2-methyl-propan-1-one]",,3 to 50 µM
Cc1ccc(-n2nncc2C2CCN(C(=O)[C@@](C)(O)C(F)(F)F)CC2)c(F)c1 [Compound A60],0.3 to 3 µM,0.3 to 3 µM
"C[C@@](O)(C(=O)N1CCC(c2ccnn2-c2ccccc2C(F)(F)F)CC1)C(F)(F)F [Compound A89, (R)-3,3,3-Trifluoro-2-hydroxy-2-methyl-1-[4-[2-[2-(trifluoromethyl)phenyl]-2H-pyrazol-3-yl]-1-piperidyl]propan-1-one]",,0.3 to 3 µM
"C[C@@](O)(C(=O)N1CCC(c2ccn(-c3ncc(Cl)cn3)n2)CC1)C(F)(F)F [Compound A103, (R)-1-{4-[1-(5-Chloro-pyrimidin-2-yl)-1H-pyrazol-3-yl]-piperidin-1-yl}-3,3,3-trifluoro-2-hydroxy-2-methyl-propan-1-one]",,3 to 50 µM
